Experimental data as given in ChEMBL document CHEMBL5120845, “Design and synthesis of novel macrolones bridged with linkers from 11,12-positions of macrolides” (Bioorg Med Chem Lett, 2022).
Converted amounts (≈) assume the structure as drawn.

Tests used:
Type in all cases: functional
Staphylococcus aureus [1] = experiment: Antibacterial activity against Staphylococcus aureus 15B196 by microbroth dilution method
Streptococcus pyogenes = experiment: Antibacterial activity against Streptococcus pyogenes 12-206 by microbroth dilution method
Streptococcus pneumoniae [2] = experiment: Antibacterial activity against Streptococcus pneumoniae 07P390 by microbroth dilution method
Staphylococcus aureus [3] = experiment: Antibacterial activity against Staphylococcus aureus PU32 by microbroth dilution method
Haemophilus influenzae = experiment: Antibacterial activity against Haemophilus influenzae ATCC 49247 by microbroth dilution method
Streptococcus pneumoniae [4] = experiment: Antibacterial activity against Streptococcus pneumoniae ATCC 49619 by microbroth dilution method
Streptococcus pneumoniae [5] = experiment: Antibacterial activity against Streptococcus pneumoniae PU09 by microbroth dilution method

Row | Structure (SMILES) | MIC (Staphylococcus aureus [1]) [µg/mL] | MIC (Streptococcus pyogenes) [µg/mL] | MIC (Streptococcus pneumoniae [2]) [µg/mL] | MIC (Staphylococcus aureus [3]) [µg/mL] | MIC (Haemophilus influenzae) [µg/mL] | MIC (Streptococcus pneumoniae [4]) [µg/mL] | MIC (Streptococcus pneumoniae [5]) [µg/mL]
1 | CC[C@H]1OC(=O)[C@H](C)C(=O)[C@H](C)[C@@H](O[C@@H]2O[C@H](C)C[C@H](N(C)C)[C@H]2O)[C@](C)(OC)C[C@@H](C)C(=O)[C@H](C)[C@H]2N(CCC#Cc3ccc4c(c3)c(=O)c(C(N)=O)cn4C3CC3)C(=O)O[C@]12C | 32 (≈ 35.9 µM) | 1 (≈ 1.12 µM) | 8 (≈ 8.98 µM) | 1 (≈ 1.12 µM) | 16 (≈ 18 µM) | ≤ 0.008 | 1 (≈ 1.12 µM)
2 | CC[C@H]1OC(=O)[C@H](C)C(=O)[C@H](C)[C@@H](O[C@@H]2O[C@H](C)C[C@H](N(C)C)[C@H]2O)[C@](C)(OC)C[C@@H](C)C(=O)[C@H](C)[C@H]2N(CCCCc3ccc4c(=O)c(C(N)=O)cn(C5CC5)c4c3)C(=O)O[C@]12C | 512 (≈ 572 µM) | 4 (≈ 4.47 µM) | 32 (≈ 35.8 µM) | 1 (≈ 1.12 µM) | 32 (≈ 35.8 µM) | 0.03 (≈ 0.0335 µM) | 0.25 (≈ 0.279 µM)
3 | CC[C@H]1OC(=O)[C@H](C)C(=O)[C@H](C)[C@@H](O[C@@H]2O[C@H](C)C[C@H](N(C)C)[C@H]2O)[C@](C)(OC)C[C@@H](C)C(=O)[C@H](C)[C@H]2N(CC/C=C\c3ccc4c(c3)c(=O)c(C(=O)O)cn4C3CC3)C(=O)O[C@]12C | 256 (≈ 286 µM) | 2 (≈ 2.24 µM) | 32 (≈ 35.8 µM) | 0.5 (≈ 0.559 µM) | 8 (≈ 8.95 µM) | ≤ 0.008 | 1 (≈ 1.12 µM)
4 | CC[C@H]1OC(=O)[C@H](C)C(=O)[C@H](C)[C@@H](O[C@@H]2O[C@H](C)C[C@H](N(C)C)[C@H]2O)[C@](C)(OC)C[C@@H](C)C(=O)[C@H](C)[C@H]2N(CCCCCC#Cc3ccc4c(=O)c(C(=O)O)cn(C5CC5)c4c3)C(=O)O[C@]12C | 128 (≈ 137 µM) | 2 (≈ 2.14 µM) | 16 (≈ 17.1 µM) | 4 (≈ 4.28 µM) | 16 (≈ 17.1 µM) | ≤ 0.008 | 1 (≈ 1.07 µM)
5 | CC[C@H]1OC(=O)[C@H](C)C(=O)[C@H](C)[C@@H](O[C@@H]2O[C@H](C)C[C@H](N(C)C)[C@H]2O)[C@](C)(OC)C[C@@H](C)C(=O)[C@H](C)[C@H]2N(CCN3CCN(c4cc5c(cc4F)c(=O)c(C(=O)O)cn5C4CC4)CC3)C(=O)O[C@]12C | 256 (≈ 264 µM) | 1 (≈ 1.03 µM) | 2 (≈ 2.06 µM) | 4 (≈ 4.12 µM) | 32 (≈ 33 µM) | 0.03 (≈ 0.0309 µM) | 2 (≈ 2.06 µM)
6 | CC[C@H]1OC(=O)[C@H](C)C(=O)[C@H](C)[C@@H](O[C@@H]2O[C@H](C)C[C@H](N(C)C)[C@H]2O)[C@](C)(OC)C[C@@H](C)C(=O)[C@H](C)[C@H]2N(CCCCN3CCN(c4cc5c(cc4F)c(=O)c(C(=O)O)cn5C4CC4)CC3)C(=O)O[C@]12C | 256 (≈ 256 µM) | 0.5 (≈ 0.501 µM) | 2 (≈ 2 µM) | 2 (≈ 2 µM) | 8 (≈ 8.01 µM) | ≤ 0.008 | 0.5 (≈ 0.501 µM)
7 | CC[C@H]1OC(=O)[C@H](C)C(=O)[C@H](C)[C@@H](O[C@@H]2O[C@H](C)C[C@H](N(C)C)[C@H]2O)[C@](C)(OC)C[C@@H](C)C(=O)[C@H](C)[C@H]2N(CCCCCC#Cc3ccc4c(c3)c(=O)c(C(N)=O)cn4C3CC3)C(=O)O[C@]12C | 128 (≈ 137 µM) | 2 (≈ 2.14 µM) | 4 (≈ 4.29 µM) | 8 (≈ 8.57 µM) | 64 (≈ 68.6 µM) | 0.016 (≈ 0.0171 µM) | 1 (≈ 1.07 µM)
8 | CC[C@H]1OC(=O)[C@H](C)C(=O)[C@H](C)[C@@H](O[C@@H]2O[C@H](C)C[C@H](N(C)C)[C@H]2O)[C@](C)(OC)C[C@@H](C)C(=O)[C@H](C)[C@H]2N(CCCCCCC#Cc3ccc4c(=O)c(C(=O)O)cn(C5CC5)c4c3)C(=O)O[C@]12C | 32 (≈ 33.7 µM) | 1 (≈ 1.05 µM) | 8 (≈ 8.44 µM) | 4 (≈ 4.22 µM) | 16 (≈ 16.9 µM) | ≤ 0.008 | 1 (≈ 1.05 µM)
9 | CC[C@H]1OC(=O)[C@H](C)C(=O)[C@H](C)[C@@H](O[C@@H]2O[C@H](C)C[C@H](N(C)C)[C@H]2O)[C@](C)(OC)C[C@@H](C)C(=O)[C@H](C)[C@H]2N(CCN3CCN(c4c(F)cc5c(=O)c(C(=O)O)cn(C6CC6)c5c4OC)CC3)C(=O)O[C@]12C | 32 (≈ 32 µM) | 8 (≈ 8 µM) | 2 (≈ 2 µM) | 8 (≈ 8 µM) | 32 (≈ 32 µM) | 0.25 (≈ 0.25 µM) | 2 (≈ 2 µM)
10 | CC[C@H]1OC(=O)[C@H](C)C(=O)[C@H](C)[C@@H](O[C@@H]2O[C@H](C)C[C@H](N(C)C)[C@H]2O)[C@](C)(OC)C[C@@H](C)C(=O)[C@H](C)[C@H]2N(CCCN3CCN(c4cc5c(cc4F)c(=O)c(C(N)=O)cn5C4CC4)CC3)C(=O)O[C@]12C | 512 (≈ 521 µM) | 8 (≈ 8.14 µM) | 256 (≈ 260 µM) | 2 (≈ 2.03 µM) | 128 (≈ 130 µM) | 0.12 (≈ 0.122 µM) | 2 (≈ 2.03 µM)
11 | CC[C@H]1OC(=O)[C@H](C)C(=O)[C@H](C)[C@@H](O[C@@H]2O[C@H](C)C[C@H](N(C)C)[C@H]2O)[C@](C)(OC)C[C@@H](C)C(=O)[C@H](C)[C@H]2N(CCCC#Cc3ccc4c(=O)c(C(N)=O)cn(C5CC5)c4c3)C(=O)O[C@]12C | 512 (≈ 566 µM) | 4 (≈ 4.42 µM) | 128 (≈ 141 µM) | 4 (≈ 4.42 µM) | 128 (≈ 141 µM) | 0.03 (≈ 0.0331 µM) | 2 (≈ 2.21 µM)
12 | CC[C@H]1OC(=O)[C@H](C)C(=O)[C@H](C)[C@@H](O[C@@H]2O[C@H](C)C[C@H](N(C)C)[C@H]2O)[C@](C)(OC)C[C@@H](C)C(=O)[C@H](C)[C@H]2N(CCC#Cc3ccc4c(=O)c(C(N)=O)cn(C5CC5)c4c3)C(=O)O[C@]12C | 512 (≈ 575 µM) | 32 (≈ 35.9 µM) | 128 (≈ 144 µM) | 1 (≈ 1.12 µM) | 128 (≈ 144 µM) | 0.06 (≈ 0.0673 µM) | 0.12 (≈ 0.135 µM)
13 | CC[C@H]1OC(=O)[C@H](C)C(=O)[C@H](C)[C@@H](O[C@@H]2O[C@H](C)C[C@H](N(C)C)[C@H]2O)[C@](C)(OC)C[C@@H](C)C(=O)[C@H](C)[C@H]2N(CCCCc3ccc4c(c3)c(=O)c(C(=O)O)cn4C3CC3)C(=O)O[C@]12C | 512 (≈ 571 µM) | 2 (≈ 2.23 µM) | 64 (≈ 71.4 µM) | 1 (≈ 1.12 µM) | 32 (≈ 35.7 µM) | 0.06 (≈ 0.067 µM) | 4 (≈ 4.46 µM)
14 | O=C(O)c1cn(C2CC2)c2cc(N3CCNCC3)c(F)cc2c1=O [CIPROFLOXACIN] | 1 (≈ 3.02 µM) | 0.25 (≈ 0.754 µM) | 2 (≈ 6.04 µM) | 32 (≈ 96.6 µM) | 0.03 (≈ 0.0905 µM) | 1 (≈ 3.02 µM) | 2 (≈ 6.04 µM)

Next, values leading:

Row | MIC (Staphylococcus aureus [1]) [µg/mL] | MIC (Streptococcus pyogenes) [µg/mL] | MIC (Streptococcus pneumoniae [2]) [µg/mL] | MIC (Staphylococcus aureus [3]) [µg/mL] | MIC (Haemophilus influenzae) [µg/mL] | MIC (Streptococcus pneumoniae [4]) [µg/mL] | MIC (Streptococcus pneumoniae [5]) [µg/mL] | Structure (SMILES)
15 | 128 (≈ 137 µM) | 2 (≈ 2.14 µM) | 32 (≈ 34.3 µM) | 8 (≈ 8.56 µM) | 32 (≈ 34.3 µM) | ≤ 0.008 | 1 (≈ 1.07 µM) | CC[C@H]1OC(=O)[C@H](C)C(=O)[C@H](C)[C@@H](O[C@@H]2O[C@H](C)C[C@H](N(C)C)[C@H]2O)[C@](C)(OC)C[C@@H](C)C(=O)[C@H](C)[C@H]2N(CCCCCC#Cc3ccc4c(c3)c(=O)c(C(=O)O)cn4C3CC3)C(=O)O[C@]12C
16 | 256 (≈ 283 µM) | 2 (≈ 2.21 µM) | 2 (≈ 2.21 µM) | 4 (≈ 4.41 µM) | 32 (≈ 35.3 µM) | 0.03 (≈ 0.0331 µM) | 1 (≈ 1.1 µM) | CC[C@H]1OC(=O)[C@H](C)C(=O)[C@H](C)[C@@H](O[C@@H]2O[C@H](C)C[C@H](N(C)C)[C@H]2O)[C@](C)(OC)C[C@@H](C)C(=O)[C@H](C)[C@H]2N(CCCC#Cc3ccc4c(=O)c(C(=O)O)cn(C5CC5)c4c3)C(=O)O[C@]12C
17 | 256 (≈ 278 µM) | 2 (≈ 2.17 µM) | 8 (≈ 8.69 µM) | 2 (≈ 2.17 µM) | 32 (≈ 34.8 µM) | 0.016 (≈ 0.0174 µM) | 2 (≈ 2.17 µM) | CC[C@H]1OC(=O)[C@H](C)C(=O)[C@H](C)[C@@H](O[C@@H]2O[C@H](C)C[C@H](N(C)C)[C@H]2O)[C@](C)(OC)C[C@@H](C)C(=O)[C@H](C)[C@H]2N(CCCCC#Cc3ccc4c(=O)c(C(=O)O)cn(C5CC5)c4c3)C(=O)O[C@]12C
18 | 512 (≈ 574 µM) | 4 (≈ 4.48 µM) | 256 (≈ 287 µM) | 2 (≈ 2.24 µM) | 32 (≈ 35.9 µM) | 0.06 (≈ 0.0673 µM) | 1 (≈ 1.12 µM) | CC[C@H]1OC(=O)[C@H](C)C(=O)[C@H](C)[C@@H](O[C@@H]2O[C@H](C)C[C@H](N(C)C)[C@H]2O)[C@](C)(OC)C[C@@H](C)C(=O)[C@H](C)[C@H]2N(CCC#Cc3ccc4c(c3)c(=O)c(C(=O)O)cn4C3CC3)C(=O)O[C@]12C
19 | 256 (≈ 283 µM) | 2 (≈ 2.21 µM) | 128 (≈ 141 µM) | 4 (≈ 4.41 µM) | 8 (≈ 8.83 µM) | 0.03 (≈ 0.0331 µM) | 1 (≈ 1.1 µM) | CC[C@H]1OC(=O)[C@H](C)C(=O)[C@H](C)[C@@H](O[C@@H]2O[C@H](C)C[C@H](N(C)C)[C@H]2O)[C@](C)(OC)C[C@@H](C)C(=O)[C@H](C)[C@H]2N(CCCC#Cc3ccc4c(c3)c(=O)c(C(=O)O)cn4C3CC3)C(=O)O[C@]12C
20 | 16 (≈ 17.9 µM) | 1 (≈ 1.12 µM) | 2 (≈ 2.24 µM) | 0.25 (≈ 0.28 µM) | 4 (≈ 4.48 µM) | 0.016 (≈ 0.0179 µM) | 0.5 (≈ 0.561 µM) | CC[C@H]1OC(=O)[C@H](C)C(=O)[C@H](C)[C@@H](O[C@@H]2O[C@H](C)C[C@H](N(C)C)[C@H]2O)[C@](C)(OC)C[C@@H](C)C(=O)[C@H](C)[C@H]2N(CCC#Cc3ccc4c(=O)c(C(=O)O)cn(C5CC5)c4c3)C(=O)O[C@]12C
21 | 128 (≈ 135 µM) | 1 (≈ 1.05 µM) | 16 (≈ 16.9 µM) | 4 (≈ 4.22 µM) | 4 (≈ 4.22 µM) | ≤ 0.008 | 1 (≈ 1.05 µM) | CC[C@H]1OC(=O)[C@H](C)C(=O)[C@H](C)[C@@H](O[C@@H]2O[C@H](C)C[C@H](N(C)C)[C@H]2O)[C@](C)(OC)C[C@@H](C)C(=O)[C@H](C)[C@H]2N(CCCCCCC#Cc3ccc4c(c3)c(=O)c(C(=O)O)cn4C3CC3)C(=O)O[C@]12C
22 | 256 (≈ 278 µM) | 4 (≈ 4.35 µM) | 128 (≈ 139 µM) | 2 (≈ 2.17 µM) | 32 (≈ 34.8 µM) | 0.016 (≈ 0.0174 µM) | 1 (≈ 1.09 µM) | CC[C@H]1OC(=O)[C@H](C)C(=O)[C@H](C)[C@@H](O[C@@H]2O[C@H](C)C[C@H](N(C)C)[C@H]2O)[C@](C)(OC)C[C@@H](C)C(=O)[C@H](C)[C@H]2N(CCCCC#Cc3ccc4c(c3)c(=O)c(C(=O)O)cn4C3CC3)C(=O)O[C@]12C
